Measurements from ChEMBL document CHEMBL1136098, “Semisynthetic preparation of amentoflavone: A negative modulator at GABA(A) receptors” (Bioorg Med Chem Lett, 2003).

What was measured:
[1] = target: 5-hydroxytryptamine receptor 1D (Sus scrofa, UniProt P79400); assay: Binding affinity (in vitro) against 5-hydroxytryptamine 1D receptor alpha using radio-ligand binding assay
[2] = target: GABA-A receptor; anion channel; assay: Inhibition of [3H]flunitrazepam binding to rat brain GABA-A benzodiazepine receptor
[3] = target: GABA-A receptor; anion channel; assay: Binding affinity for human cloned GABA-A benzodiazepine receptor; assay type: protein-complex assay
[4] = target: T1, GABA-A receptor; alpha-1/beta-2/gamma-2 (Homo sapiens, UniProt P14867+P18507+P47870); assay: Effective concentration against human recombinant GABA-A receptor alpha-1-beta-2-gamma-2 subunits expressed in Xenopus oocytes; assay type: cell-based, Oocyte
T1 sequence (P14867 whole entry): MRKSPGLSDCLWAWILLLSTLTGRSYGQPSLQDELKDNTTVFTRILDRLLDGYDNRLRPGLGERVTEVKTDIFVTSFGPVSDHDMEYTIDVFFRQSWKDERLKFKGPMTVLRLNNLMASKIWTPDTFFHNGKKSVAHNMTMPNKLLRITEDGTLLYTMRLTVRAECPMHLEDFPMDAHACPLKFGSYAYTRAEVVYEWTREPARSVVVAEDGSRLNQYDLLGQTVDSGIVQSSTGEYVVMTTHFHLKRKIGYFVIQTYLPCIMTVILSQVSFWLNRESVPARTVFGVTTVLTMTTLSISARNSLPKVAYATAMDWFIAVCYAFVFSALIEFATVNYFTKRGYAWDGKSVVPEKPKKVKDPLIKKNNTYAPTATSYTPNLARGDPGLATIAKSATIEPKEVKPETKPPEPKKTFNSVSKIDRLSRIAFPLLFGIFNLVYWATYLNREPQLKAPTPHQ
T1 sequence (P47870 whole entry): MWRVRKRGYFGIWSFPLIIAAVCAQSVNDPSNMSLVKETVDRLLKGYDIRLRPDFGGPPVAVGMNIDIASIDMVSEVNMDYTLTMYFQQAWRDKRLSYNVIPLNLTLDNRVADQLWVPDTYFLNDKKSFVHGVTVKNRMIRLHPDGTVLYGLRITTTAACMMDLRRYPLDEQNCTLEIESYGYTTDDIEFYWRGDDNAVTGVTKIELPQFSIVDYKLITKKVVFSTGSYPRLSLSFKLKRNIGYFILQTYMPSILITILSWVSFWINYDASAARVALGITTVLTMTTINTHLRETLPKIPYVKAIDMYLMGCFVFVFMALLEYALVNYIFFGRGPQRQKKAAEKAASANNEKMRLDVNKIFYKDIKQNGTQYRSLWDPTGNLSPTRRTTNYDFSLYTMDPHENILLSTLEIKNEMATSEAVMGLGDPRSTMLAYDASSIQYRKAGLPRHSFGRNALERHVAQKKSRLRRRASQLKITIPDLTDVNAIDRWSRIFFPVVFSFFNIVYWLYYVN
T1 sequence (P18507 whole entry): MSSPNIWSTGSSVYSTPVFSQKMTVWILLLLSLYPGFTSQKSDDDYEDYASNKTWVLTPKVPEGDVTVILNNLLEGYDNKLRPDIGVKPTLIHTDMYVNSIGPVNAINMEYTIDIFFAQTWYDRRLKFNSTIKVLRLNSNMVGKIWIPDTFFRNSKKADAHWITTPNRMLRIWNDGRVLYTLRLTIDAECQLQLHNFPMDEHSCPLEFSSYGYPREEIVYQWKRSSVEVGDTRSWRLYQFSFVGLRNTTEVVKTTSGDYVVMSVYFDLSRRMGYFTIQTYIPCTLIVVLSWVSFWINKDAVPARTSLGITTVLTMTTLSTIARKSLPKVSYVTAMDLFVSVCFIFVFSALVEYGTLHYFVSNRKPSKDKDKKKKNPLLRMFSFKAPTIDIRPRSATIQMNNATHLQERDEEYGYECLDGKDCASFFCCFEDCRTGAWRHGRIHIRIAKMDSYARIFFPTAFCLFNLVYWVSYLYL

[5] = target: D(3) dopamine receptor (Homo sapiens, UniProt P35462); assay: Binding affinity (in vitro) against Dopamine receptor D3 using radio-ligand binding assay; design: species or system Sus scrofa
D(3) dopamine receptor, sequence (P35462 whole entry): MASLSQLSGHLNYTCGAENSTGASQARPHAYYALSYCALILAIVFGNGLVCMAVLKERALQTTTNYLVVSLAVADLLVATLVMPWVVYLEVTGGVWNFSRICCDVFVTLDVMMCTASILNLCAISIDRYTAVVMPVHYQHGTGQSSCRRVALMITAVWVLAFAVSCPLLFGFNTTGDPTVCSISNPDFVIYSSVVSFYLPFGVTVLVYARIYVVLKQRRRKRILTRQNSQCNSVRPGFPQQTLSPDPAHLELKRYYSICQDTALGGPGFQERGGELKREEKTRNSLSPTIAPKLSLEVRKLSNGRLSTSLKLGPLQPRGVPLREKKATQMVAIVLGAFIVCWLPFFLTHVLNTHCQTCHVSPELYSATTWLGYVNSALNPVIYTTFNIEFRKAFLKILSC

[6] = target: GABA-A receptor; anion channel; assay: Binding affinity for GABA-A benzodiazepine receptor; assay type: protein-complex assay
[7] = target: Delta-type opioid receptor (Sus scrofa, UniProt P79291); assay: Binding affinity (in vitro) against Opioid receptor delta 1 using radio-ligand binding assay
Delta-type opioid receptor, sequence (P79291 whole entry): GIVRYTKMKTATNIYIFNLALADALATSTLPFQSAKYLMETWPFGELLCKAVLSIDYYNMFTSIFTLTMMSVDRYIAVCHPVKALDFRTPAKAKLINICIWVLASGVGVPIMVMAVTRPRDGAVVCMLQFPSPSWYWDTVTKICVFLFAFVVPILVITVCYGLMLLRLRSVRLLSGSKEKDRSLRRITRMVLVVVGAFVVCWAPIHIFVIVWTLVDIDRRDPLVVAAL

5-hydroxytryptamine receptor 1D, sequence (P79400 whole entry): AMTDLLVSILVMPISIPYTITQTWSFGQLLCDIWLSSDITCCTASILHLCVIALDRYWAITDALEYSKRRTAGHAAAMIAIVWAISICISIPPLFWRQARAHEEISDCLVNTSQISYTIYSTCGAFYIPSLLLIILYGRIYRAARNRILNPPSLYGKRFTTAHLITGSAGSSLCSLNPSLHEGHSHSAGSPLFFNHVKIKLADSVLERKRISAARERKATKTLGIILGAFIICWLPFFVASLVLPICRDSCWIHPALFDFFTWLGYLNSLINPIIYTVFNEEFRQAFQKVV

- Ki [1]: 4090 nM
- IC50 [2]: 14.9 nM
- Ki [3]: 6 nM
- EC50 [4]: 3600 nM
- Ki [5]: 1240 nM
- Ki [6]: 6 nM
- Ki [7]: 36.5 nM
SMILES: O=c1cc(-c2ccc(O)c(-c3c(O)cc(O)c4c(=O)cc(-c5ccc(O)cc5)oc34)c2)oc2cc(O)cc(O)c12 [AMENTOFLAVONE]
